# Test results as given in paper PMC9589885, “A designed antimicrobial peptide with potential ability against methicillin resistant Staphylococcus aureus” (Frontiers in Microbiology, 2022).
# Where two headings read alike, the source gives them in different places. Residues, ends and D or L forms follow the SMILES beside them.
# Experiments:
# [1] = test system: Escherichia coli (ATCC25922); format: cell-based; settings: E. coli ATCC25922; broth dilution, 37°C, 16 h
# Source text: (§1) The standard strain of Staphylococcus aureus (S. aureus, ATCC6538), Escherichia coli (E. coli, ATCC25922), Pseudomonas aeruginosa (P. aeruginosa, ATCC9027), Acinetobacter baumannii (A. baumannii, ATCC19606) and Candida albicans (C. albicans, ATCC/0331) used in this experiment was purchased from the microbial strain collection center of Guangdong Province. The methicillin resistant strain of Staphylococcus aureus (MRSA, SAZ) and clinically isolated antibiotic-resistance strains (SA115775 and SA15192) were clinically isolated from the First Affiliated Hospital of Kunming Medical University. The strains of C. albicans were cultured in 1/3 YM Medium (HB0297-1) + 2/3 RPMI 1640 medium (10-040-CVR, Corning), and other bacterial strains were cultured in Luria-Bertani (LB: 2 g tryptone, 1 g yeast extract, 2 g sodium chloride and 200 ml deionized water) broth.
# (§2) Briefly, bacteria strains were diluted and adjusted to the concentration of 2 × 10^5 CFU/ml using RPMI 1640 medium. Samples were prepared as a stock solution in saline, and then diluted to a series of concentrations. 100 μl bacterial suspension and 100 μl samples at the indicated concentration were put together in 96-well plates and incubated at 37°C for 16 h. Finally, an absorbance at 600 nm was measured by a microplate reader to estimate bacterial growth. The MIC was defined as the lowest concentration where the bacterial growth could not be detected completely.
# [2] = test system: Candida albicans (ATCC/0331); format: cell-based; settings: C. albicans ATCC/0331; broth dilution, 37°C, 16 h
# Source text: as §1, §2
# [3] = in vitro; settings: human, human plasma
# Experimental: After incubation for 0, 2, 4, 6, 8 and 10 h at 37°C, an aliquot of 10 μl sample was taken for protein precipitation with an equal volume of 4% H3PO4, the mixture was vortex-mixed for 2 min and then centrifuged at 13000 rpm for 15 min at 4°C. 3 μl of supernatant was analyzed using reverse-phase high performance liquid chromatography (RP-HPLC), and the remaining peptide was calculated through the integrated peak area.
# [4] = test system: human mature red blood cells; settings: 1.32–169.01 μM, 30 min, 37°C, absorbance 540 nm, 3 independent experiments
# Experimental: (§3) Hemolysis of testing sample was calculated as the percentage of Triton X-100-induced hemolysis.
# as §3
# [5] = test system: methicillin-resistant Staphylococcus aureus (MRSA-Z); experiment: microbe, parasite or virus in culture; format: cell-based; settings: 16 h
# Source text: as §1, §2
# [6] = test system: Staphylococcus aureus (SA15192); experiment: microbe, parasite or virus in culture; format: cell-based; settings: 16 h
# Source text: as §1, §2
# [7] = test system: Staphylococcus aureus (ATCC6538); experiment: microbe, parasite or virus in culture; format: cell-based
# Source text: as §1, §2
# [8] = test system: Staphylococcus aureus (SA115775); experiment: microbe, parasite or virus in culture; format: cell-based; settings: 16 h
# Source text: as §1, §2
# [9] = test system: HEK293T cells; settings: up to 169.01 μM, 24 h, CCK8, absorbance 450 nm; 3 independent experiments
# [10] = test system: S. aureus (ATCC6538, MRSA-Z, SA15192, SA115775); settings: 4.23 mM in 100% human plasma, 0-10 h, 37°C, disk diffusion, zone of inhibition, two independent experiments
# Experimental: Residual antibacterial activity for each incubation time point was evaluated by disk diffusion assay. In brief, bacteria were seeded on nutrient agar plates, 6 mm paper disks were placed on top and 10 μl aliquots of the plasma-peptide mixture was added to the paper disks. After 24 h incubation, the inhibitory zones against S. aureus (ATCC6538, MRSA-Z, SA15192, SA115775) were measured and recorded.
# Data represent mean ± SD of two independent experiments.
# [11] = test system: C57BL/6 mice; experiment: In vivo acute toxicity assay; design: species or system mouse; settings: single dose 20 mg/kg and 40 mg/kg, intravenous (tail vein), male C57BL/6, n = 10, recorded 12-72 h
# Experimental: Male C57BL/6 mice aged 6–8 weeks were randomly divided into 2 groups with 10 mice in each group. […] Then the death of mice was recorded at 12 h, 24 h, 36 h, 48 h, 60 h and 72 h, respectively.
# [picture] Supplementary Figure 1. […] Male C57BL/6 mice aged 6–8 weeks were randomly divided into 2 groups (n = 10). […] Then the death of mice was recorded at 12 h, 24 h, 36 h, 48 h, 60 h and 72 h respectively.
# [12] = test system: methicillin-resistant S. aureus (MRSA-Z); experiment: Bacterial killing kinetic assay; format: cell-based, Staphylococcus aureus; settings: 1 ×, 5 × and 10 × MIC; RPMI 1640 with 10% FBS, 37°C
# Experimental: (§4) The bacterial killing kinetic assay was performed according to the previous method with minor modifications ([Wei et al., 2015]). S. aureus (ATCC6538) and methicillin resistant strain of Staphylococcus aureus (MRSA, SAZ) were washed three times with saline and then resuspended with RPMI 1640 medium containing 10% FBS at the concentration of 2 × 10^5 CFU/ml. […] Ten microliter aliquots were extracted at each time point and diluted with fresh broth for 100 times, 100 μl of the dilution was seeded on agar plates. After incubation at 37°C for 24 h, the viable colonies were determined.
# (§5) Ten microliter aliquots were extracted at each time point and diluted with fresh broth for 100 times, 100 μl of the dilution was seeded on agar plates. After incubation at 37°C for 24 h, the viable colonies were determined for the killing kinetic analysis. Data represent mean ± SD values of three independent experiments. *p < 0.05, **p < 0.01, ***p < 0.001.
# [13] = test system: S. aureus (ATCC6538); experiment: Bacterial killing kinetic assay; format: cell-based, Staphylococcus aureus; settings: 1 ×, 5 × or 10 × MIC; RPMI 1640 with 10% FBS, 37°C; not completely killed in the time given
# Experimental: as §4, §5
# [14] = test system: S. aureus (ATCC6538); experiment: Staphylococcus aureus intraperitoneal infection model; format: in vivo, C57BL/6 mice; settings: CFU 4 h after administration, n = 6
# Experimental: S. aureus (ATCC6538) and methicillin resistant strain of Staphylococcus aureus (MRSA, SAZ) were resuspended by saline with the concentration of 1 × 10^9 CFU/ml. […] 2 h later, samples were intraperitoneally injected with the concentration indicated. After 4 h of administration, mice were sacrificed, blood was collected via retro-orbital bleeding and lungs were harvested and homogenized in 1 ml of saline with a hand tissue grinder. 10-fold serial dilutions of the homogenates and blood were made in pyrogen-free NaCl and equal volumes were plated on LB agar plates and incubated at 37°C. CFU were counted after 24 h.
# After 4 h of administration, mice were sacrificed, blood (A,C) and lung (B,D) were collected for the measurement of bacterial loads. Data represent mean ± SD values of six independent experiments. *p < 0.05, **p < 0.01, ***p < 0.001.
# [15] = test system: Pseudomonas aeruginosa (ATCC9027); experiment: MIC, broth dilution; format: cell-based; settings: P. aeruginosa ATCC9027, 37°C, 16 h
# Source text: as §1
# as §2, with “100 μl bacterial suspension and 100 μl samples at the indicated concentration were put together in 96-well plates and incubated at 37°C for 16 h.” left out
# [16] = test system: Acinetobacter baumannii (ATCC19606); experiment: MIC, broth dilution; format: cell-based; settings: A. baumannii ATCC19606, 37°C, 16 h
# Source text: as §1
# as §2, with “100 μl bacterial suspension and 100 μl samples at the indicated concentration were put together in 96-well plates and incubated at 37°C for 16 h.” left out
molecule,measurement,setting,value
C[C@H](NC(=O)CNC(=O)[C@H](Cc1c[nH]c2ccccc12)NC(=O)CN)C(=O)N[C@@H](CCCCN)C(=O)N[C@@H](CCCNC(=N)N)C(=O)N[C@@H](Cc1c[nH]c2ccccc12)C(=O)NCC(=O)N[C@@H](CCCCN)C(=O)N[C@@H](CCCNC(=N)N)C(=O)NCC(=O)N[C@@H](Cc1c[nH]c2ccccc12)C(=O)N[C@@H](CCCCN)C(=O)N[C@@H](Cc1c[nH]c2ccccc12)C(=O)N[C@@H](CCCCN)C(=O)N[C@@H](CCCNC(=N)N)C(=O)N[C@@H](Cc1c[nH]cn1)C(=O)N[C@@H](Cc1c[nH]c2ccccc12)C(N)=O [GW18] (H-GWGAKRWGKRGWKWKRHW-NH2),MIC,[1],5.28 µM
same,MIC,[2],>20 µM
same,"remaining at 10 h, 4.23 μM",[3],57.6%
same,Hemolytic activity,[4],no obvious hemolytic activity
same,MIC,"[5]; MRSA-Z, broth dilution, RPMI 1640, 2 × 10^5 CFU/ml, 37°C, absorbance 600 nm, read-out: MIC",1.32 µM
same,MIC,"[6]; clinical isolate SA15192, broth dilution, RPMI 1640, 2 × 10^5 CFU/ml, 37°C, read-out: MIC",1.32 µM
same,MIC,"[7]; S. aureus ATCC6538, broth dilution, RPMI 1640, 2 × 10^5 CFU/ml, 37°C, 16 h, absorbance 600 nm, read-out: MIC",1.32 µM
same,MIC,"[8]; clinical isolate SA115775, broth dilution, RPMI 1640, 2 × 10^5 CFU/ml, 37°C, read-out: MIC",1.32 µM
same,Cytotoxicity on HEK293T,[9],no obvious cytotoxicity
same,Antibacterial activity against S. aureus after incubation in human plasma,[10],did not significantly affect
same,Acute toxicity (death of mice),[11],no acute toxicity
"COc1cccc(OC)c1C(=O)N[C@@H]1C(=O)N2[C@@H]1SC(C)(C)[C@@H]2C(=O)O [Methicillin, methicillin]",MIC,"[5]; Staphylococcus aureus, MRSA-Z, broth dilution, RPMI 1640, 2 × 10^5 CFU/ml, 37°C, absorbance 600 nm, read-out: MIC",> 124 µM
same,MIC,"[6]; Staphylococcus aureus, clinical isolate SA15192, broth dilution, RPMI 1640, 2 × 10^5 CFU/ml, 37°C, read-out: MIC",15.5 µM
same,MIC,"[7]; Staphylococcus aureus, S. aureus ATCC6538, broth dilution, RPMI 1640, 2 × 10^5 CFU/ml, 37°C, 16 h, absorbance 600 nm, read-out: MIC",1.94 µM
same,MIC,"[8]; Staphylococcus aureus, clinical isolate SA115775, broth dilution, RPMI 1640, 2 × 10^5 CFU/ml, 37°C, read-out: MIC",62.1 µM
"CN[C@H](CC(C)C)C(=O)N[C@H]1C(=O)N[C@@H](CC(N)=O)C(=O)N[C@H]2C(=O)N[C@H]3C(=O)N[C@H](C(=O)N[C@H](C(=O)O)c4cc(O)cc(O)c4-c4cc3ccc4O)[C@H](O)c3ccc(c(Cl)c3)Oc3cc2cc(c3O[C@@H]2O[C@H](CO)[C@@H](O)[C@H](O)[C@H]2O[C@H]2C[C@](C)(N)[C@H](O)[C@H](C)O2)Oc2ccc(cc2Cl)[C@H]1O [Vancomycin, vancomycin]",MIC,"[5]; Staphylococcus aureus, MRSA",0.54 µM
same,MIC,[6]; Staphylococcus aureus,2.16 µM
same,MIC,"[7]; Staphylococcus aureus, ATCC6538, 16 h",1.08 µM
same,MIC,[8]; Staphylococcus aureus,1.08 µM
same,Time to completely kill the MRSA-Z,[12],240 min
same,Time to completely kill the S. aureus,[13],> 240 min
same,Dissemination of S. aureus (ATCC6538) from the peritoneal cavity to the blood,"[14]; GW18 2, 4, 8 mg/kg or vancomycin 2, 4 mg/kg ip 2 h after infection (2 × 10^8 CFU/mouse ip)",significantly suppressed
same,Dissemination of S. aureus (ATCC6538) from the peritoneal cavity to the lung,"[14]; GW18 2, 4, 8 mg/kg or vancomycin 2, 4 mg/kg ip 2 h after infection",significantly suppressed
colistin,MIC,[1],0.56 µM
same,MIC,[15],0.56 µM
same,MIC,[16],0.56 µM
